Consider 16 compounds from PubChem BioAssay (NCI).

Among the test systems are SF-539 CNS; MOLT-4 leukemia; SW-620 colon; NCI-H226 lung; RXF 393 renal; SK-OV-3 ovarian; EKVX NSCLC; KM12 colon; PC-3 prostate; IGROV1 ovarian.
Assay in all cases: NCI tumour cell line growth inhibition, 48 h

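Five concentrations, 48 hours, 96-well plates. TGI: concentration producing complete growth inhibition.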

Regarding `CC(C)(C)OC(=O)NC(CSSCC(NC(=O)OC(C)(C)C)C(=O)O)C(=O)O` (stereo not given), the TGI in the experiment on SF-539 CNS, with MOLT-4 leukemia, in the experiment with SW-620 colon, in the experiment on NCI-H226 lung, with RXF 393 renal and in the experiment with SK-OV-3 ovarian was greater than 100 µM each time. The TGI in the experiment on EKVX NSCLC, in the experiment with KM12 colon, with PC-3 prostate and in the experiment with IGROV1 ovarian was greater than 100 µM each time.
`C[C@@H]1CCC2[C@@H](C)[C@@H](O[C@H]3O[C@@H]4O[C@@]5(C)CCC6[C@H](C)CCC([C@H]3C)[C@]64OO5)O[C@@H]3O[C@@]4(C)CCC1[C@@]23OO4` (stereo not given in full): the TGI in the experiment with SF-539 CNS, in the experiment on MOLT-4 leukemia, in the experiment with SW-620 colon, in the experiment with NCI-H226 lung, in the experiment with RXF 393 renal and in the experiment with SK-OV-3 ovarian was greater than 25 µM throughout. For the same compound, the TGI in the experiment on EKVX NSCLC, in the experiment with KM12 colon, in the experiment with PC-3 prostate and in the experiment with IGROV1 ovarian was greater than 25 µM throughout.
Turning to `CC12c3c4ccc(C=O)c3Oc3ccc(C=O)c(c31)Oc1ccc(C=O)c(c12)O4`, the TGI with SF-539 CNS, in the experiment with MOLT-4 leukemia, in the experiment with SW-620 colon, in the experiment on NCI-H226 lung, in the experiment with RXF 393 renal and with SK-OV-3 ovarian was greater than 25 µM throughout. Besides, the TGI in the experiment with EKVX NSCLC, with KM12 colon, with PC-3 prostate and with IGROV1 ovarian was greater than 25 µM in each case.
Regarding `COC(=O)c1ccccc1CC1Cc2cccc(C)c2C1=O` (stereo not given), the TGI was greater than 100 µM in the experiment with SF-539 CNS; 51.2 µM with MOLT-4 leukemia; greater than 100 µM in the experiment on SW-620 colon; 71.5 µM with NCI-H226 lung; 63.7 µM with RXF 393 renal; greater than 100 µM with SK-OV-3 ovarian. For the same compound, the TGI in the experiment on EKVX NSCLC is 41.9 µM; in the experiment on KM12 colon, 66.6 µM; in the experiment with PC-3 prostate, 77.8 µM; in the experiment on IGROV1 ovarian, greater than 100 µM.
Regarding `CCCCOCCOC1=C(Cl)C(=O)c2c(O)ccc(O)c2C1=O`, the TGI with SF-539 CNS is 2.44 µM; in the experiment on MOLT-4 leukemia, 1.96 µM; in the experiment with SW-620 colon, 0.387 µM; in the experiment with NCI-H226 lung, 4.63 µM; in the experiment with RXF 393 renal, 0.668 µM; in the experiment on SK-OV-3 ovarian, 6.65 µM. The TGI in the experiment on EKVX NSCLC was found to be 7.59 µM; in the experiment with KM12 colon it was 3.37 µM; in the experiment with PC-3 prostate it was 3.08 µM; in the experiment with IGROV1 ovarian it was 2.47 µM.
Regarding `O=[N+]([O-])c1cc2oc(CSc3ccccc3)nc2cc1Cl`, the TGI is greater than 100 µM in the experiment with SF-539 CNS; greater than 100 µM with MOLT-4 leukemia; greater than 100 µM with SW-620 colon; 91.1 µM with NCI-H226 lung; 93 µM in the experiment on RXF 393 renal; 78.7 µM in the experiment on SK-OV-3 ovarian. For the same compound, the TGI in the experiment with EKVX NSCLC, in the experiment on KM12 colon, in the experiment on PC-3 prostate and with IGROV1 ovarian was greater than 100 µM each time.
Turning to `O=C(c1ccccc1)c1ccc2c(c1)NC(=O)c1ccccc1SSc1ccccc1C(=O)N2`, the TGI in the experiment with SF-539 CNS, in the experiment on MOLT-4 leukemia, with SW-620 colon, in the experiment with NCI-H226 lung, with RXF 393 renal and in the experiment with SK-OV-3 ovarian was greater than 100 µM in each case. The TGI in the experiment on EKVX NSCLC, in the experiment on KM12 colon, in the experiment with PC-3 prostate and in the experiment with IGROV1 ovarian was greater than 100 µM in each case.
In the case of `OCCCc1ccc2c(c1)[C@H](CO)[C@@H](c1ccc(O)cc1)O2`, the TGI with SF-539 CNS, in the experiment on MOLT-4 leukemia, in the experiment on SW-620 colon, in the experiment on NCI-H226 lung, in the experiment with RXF 393 renal and in the experiment with SK-OV-3 ovarian was greater than 100 µM throughout. For the same compound, the TGI with EKVX NSCLC, in the experiment with KM12 colon, in the experiment on PC-3 prostate and with IGROV1 ovarian was greater than 100 µM throughout.
Take `CCN(C(=O)N[C@@H](C)C(=O)N[C@@H](Cc1ccccc1)C(=O)OC)c1ccccc1`: the TGI with SF-539 CNS, in the experiment on MOLT-4 leukemia, with SW-620 colon, in the experiment on NCI-H226 lung, with RXF 393 renal and with SK-OV-3 ovarian was greater than 100 µM throughout. In addition, the TGI with EKVX NSCLC, in the experiment with KM12 colon, in the experiment on PC-3 prostate and in the experiment with IGROV1 ovarian was greater than 100 µM throughout.
Take `O=C1N(Cc2ccccc2)C2CSCC2N1Cc1ccccc1` (stereo not given): the TGI with SF-539 CNS is 76 µM; in the experiment with MOLT-4 leukemia it was 97 µM; with SW-620 colon, greater than 100 µM; in the experiment on NCI-H226 lung, 64.6 µM; in the experiment on RXF 393 renal it was 69.4 µM; in the experiment on SK-OV-3 ovarian it was greater than 100 µM. Also, the TGI with EKVX NSCLC is 79.3 µM; in the experiment with KM12 colon, greater than 100 µM; in the experiment with PC-3 prostate it was greater than 100 µM; in the experiment on IGROV1 ovarian, greater than 100 µM.
On to `O=c1c2c(no[n+]2[O-])c2ccccc2n1-c1ccccc1`, for which the TGI in the experiment on SF-539 CNS amounted to 16 µM; in the experiment on MOLT-4 leukemia it was 26.6 µM; in the experiment on SW-620 colon, 7.54 µM; with NCI-H226 lung, 30.7 µM; with RXF 393 renal, 14.7 µM; in the experiment with SK-OV-3 ovarian it was 21.7 µM. Moreover, the TGI was 24.5 µM with EKVX NSCLC, 22 µM with KM12 colon, 21.4 µM in the experiment on PC-3 prostate and 10 µM in the experiment on IGROV1 ovarian.
Regarding `COc1ccc2oc(=N)c(C(=O)Nc3ccccc3)cc2c1`, the TGI in the experiment on SF-539 CNS is 51.6 µM; in the experiment with MOLT-4 leukemia it was greater than 100 µM; with SW-620 colon, 80.9 µM; with NCI-H226 lung, greater than 100 µM; with RXF 393 renal it was 42.3 µM; with SK-OV-3 ovarian, 39.7 µM. For the same compound, the TGI in the experiment with EKVX NSCLC was greater than 100 µM; in the experiment with KM12 colon, greater than 100 µM; with PC-3 prostate it was greater than 100 µM; with IGROV1 ovarian it was 97.4 µM.
Turning to `Cc1cc(C[C@H]2O[C@@H]3OC(C)(C)O[C@@H]3[C@H]3OC(C)(C)O[C@H]32)c2ccccc2n1`, the TGI in the experiment on SF-539 CNS, in the experiment on MOLT-4 leukemia, with SW-620 colon, with NCI-H226 lung, in the experiment on RXF 393 renal and in the experiment on SK-OV-3 ovarian was greater than 100 µM in each case. For the same compound, the TGI in the experiment on EKVX NSCLC, in the experiment on KM12 colon, in the experiment with PC-3 prostate and with IGROV1 ovarian was greater than 100 µM in each case.
On to `c1ccc(C2=NOC(c3ccccc3)N2C23CC4CC(CC(C4)C2)C3)cc1` (stereo not given), for which the TGI in the experiment with SF-539 CNS, in the experiment on MOLT-4 leukemia, in the experiment on SW-620 colon, with NCI-H226 lung, in the experiment on RXF 393 renal and in the experiment on SK-OV-3 ovarian was greater than 10 µM throughout. For the same compound, the TGI in the experiment with EKVX NSCLC, in the experiment with KM12 colon, in the experiment on PC-3 prostate and in the experiment on IGROV1 ovarian was greater than 10 µM in each case.
Consider `O=C(O)c1cccc(S(=O)(=O)NN2C(=O)CSC2c2ccc(Cl)cc2Cl)c1` (stereo not given), for which the TGI in the experiment with SF-539 CNS was 40 µM; in the experiment on MOLT-4 leukemia it was greater than 100 µM; in the experiment on SW-620 colon it was greater than 100 µM; in the experiment with NCI-H226 lung it was greater than 100 µM; with RXF 393 renal, greater than 100 µM; with SK-OV-3 ovarian, greater than 100 µM. In addition, the TGI in the experiment on EKVX NSCLC, in the experiment on KM12 colon, in the experiment on PC-3 prostate and in the experiment with IGROV1 ovarian was greater than 100 µM in each case.
Turning to `N#Cc1sc2c(c1OC(=O)c1ccc(C(F)(F)F)cc1)c(=O)n(-c1ccccc1)c(=S)n2-c1ccccc1`, the TGI is 59 µM in the experiment on SF-539 CNS; 52.7 µM in the experiment on MOLT-4 leukemia; greater than 100 µM in the experiment with SW-620 colon; 99.8 µM in the experiment on NCI-H226 lung; 61.7 µM in the experiment on RXF 393 renal; greater than 100 µM in the experiment on SK-OV-3 ovarian. For the same compound, the TGI with EKVX NSCLC was 70.9 µM; with KM12 colon, greater than 100 µM; in the experiment on PC-3 prostate it was greater than 100 µM; in the experiment on IGROV1 ovarian it was 56.2 µM.
